Measurements published in patent US20020016351A1, “New crystals of celecoxib” (priority 2000, published 2002).

Assays:
[1] = bulk density of the crystals; type: physicochemical; details: typical and characteristic density of the celecoxib crystals
Excerpt: (§1) One of the main disadvantages of the needle-like crystals of Form II mentioned in WO 00/32189 is their low bulk density. It was found, that the crystals of the invention's Form I are distinctly denser in comparison to the crystals of Form II prepared according to the methods as given in International Applications WO 95/15316 and WO 96/37476. The following densities are typical and characteristic for the crystals of Form I and II, respectively: […]

[2] = tap density of the crystals; type: physicochemical; details: typical and characteristic density of the celecoxib crystals
Excerpt: as §1

| bulk density [1] | tap density [2] | SMILES |
| --- | --- | --- |
| ≧about 0.270 g/ml | ≧about 0.360 g/ml | Cc1ccc(-c2cc(C(F)(F)F)nn2-c2ccc(S(N)(=O)=O)cc2)cc1 [Form I, 4-[5-(4-methylphenyl)-3-(trifluoromethyl)-1H-pyrazol-1-yl]benzenesulfonamide] |
| about 0.130 g/ml | about 0.180 g/ml | Cc1ccc(-c2cc(C(F)(F)F)nn2-c2ccc(S(N)(=O)=O)cc2)cc1 [Form II, 4-[5-(4-methylphenyl)-3-(trifluoromethyl)-1H-pyrazol-1-yl]benzenesulfonamide] |
